The term melting point denotes the temperature, or range, at which the solid turns liquid. `CC(=O)Oc1ccc(N2C(=O)CC(=O)N2c2ccccc2)cc1` showed a melting point of 132 to 134 °C. Compound `CC(=O)c1c(O)cccc1OCC(F)COc1cccc(O)c1C(C)=O` had a melting point of 162 to 165 °C. For `COc1ccccc1N1CCN([C@@H]2Cc3cccc(O)c3C[C@H]2O)CC1` (relative stereo) the value was 199 to 201 °C; for `O=C(c1ccccc1)c1ccc(OCCCOc2ccc(C(=O)c3ccccc3)cc2)cc1`, 146 to 148 °C. For `CN1CC(c2nccc(CCc3ccccc3)n2)=C(O)C1=O` the value was 118 to 119 °C; for `O=c1n(Cc2ccccc2)c2cc(Cl)ccc2n1C1CCNCC1`, 128 °C; for `COC(=O)[C@@H]1C[C@H](OC(=O)c2cccs2)C(=O)[C@H]2[C@@]1(C)CC[C@H]1C(=O)O[C@H](c3ccoc3)C[C@]21C`, 143 to 145 °C. For `O=c1c2c(Cc3ccccc3)n[nH]c2c2cnccc2n1-c1ccccc1` the value was 284 to 287 °C.

The compound `Cc1cc(Br)ccc1-n1c(C(F)(F)F)nn(C)c1=O` displayed a melting point of 80 to 83 °C. For `COc1ccc(C(=O)O)c2cccc(S(=O)(=O)N(C)C)c12` the value was 220 to 221 °C; for `COc1cc(C(C)C)c(NC(=O)CN2CCN(CCSc3nc4ccccc4o3)CC2)c(C(C)C)c1`, 115 to 117 °C; for `Cc1cccc(N2CCCC2=O)c1CNc1cccn2c(C)c(C)nc12`, 138 to 141 °C. For `Nc1nc2c(ncn2COC(COCc2ccccc2)COCc2ccccc2)c(=O)[nH]1` the value was 170 to 177 °C; for `CSc1ccc(C(=O)c2ccc(SC)cc2O)cc1`, 113 to 114 °C; for `CCc1cccc(C)c1CNc1cc(C(=O)N(C)C)cn2c(C)nnc12`, 201 °C. For `CCc1ccc(S(=O)(=O)Nc2ccc(Cl)cc2[N+](=O)[O-])cc1` the value was 104 to 106 °C. Consider `CNC(=O)CCNC(=O)NOCCCl`, for which the melting point lay within 125 to 126 °C. The compound `CC(C)OC(=O)c1cc(N)c(F)c(Cl)n1` showed a melting point of 191 to 192 °C. For `COc1ccc(C(=O)Nc2ccc3ccc(OCCN(C)C)nc3n2)cc1` the value was 77 to 80 °C. For `OCCCc1ccccc1OCc1coc(/C=C/c2ccccc2)n1` the value was 76 to 77 °C. For `CCCc1nc2c(N)nc3ccccc3c2n1CCCCCC(C)=O` the value was 161 to 163 °C; for `Cc1ccc(CS(=O)C2=C(O)CC(C)(C)CC2=O)cc1` (configuration not stated), 89 to 90.5 °C.

Take `Cn1nc(Cc2ccc([N+](=O)[O-])cc2)oc1=O`: the melting point lay in the range of 115 to 116 °C. For `Cc1cccc(-c2[nH]c(C(C)C)nc2-c2cccc(-c3ccc4c(c3)CCS4(=O)=O)c2)n1` the value was 128 to 131 °C. For `C[C@@H](c1ccc(-c2ccc(F)cn2)cc1)N1CC[C@](CC(C)(C)O)(c2ccccc2)OC1=O`, the melting point lay in the range of 159 to 160 °C. In turn, `COC(=O)Cc1ccc(-c2ccc(F)cc2F)c(F)c1` had a melting point of 74 to 77 °C. As for `NS(=O)(=O)c1ccc(-n2nc(C(F)(F)F)cc2-c2ccc(-c3cocn3)cc2)cc1`, the melting point was in the range of 170 to 172 °C. Turning to `c1ccc(C[C@@H]2CN(C3=Nc4ccccc4Sc4ccccc43)CCN2)cc1`, the melting point was in the range of 56 to 69 °C. For `CC(C)CCCC(C)C1CCC2=C3C(=O)CC4C(C)(C)C(OC(=O)c5ccccc5)CCC4(C)C3CCC21C` (configuration not stated) the value was 189 to 190 °C.

For the compound `O=C(O)CCCOc1cccc(CCCCCCOc2ccc3c(c2C/C=C/c2ccccc2)CCCC3=O)c1CCC(=O)O`, the melting point was 102 to 104 °C.

As to `O=C(O)c1cn(-c2ccc(F)cc2)c2cc(N3CCNC(COc4ccccc4)C3)c(F)cc2c1=O` (configuration not stated), the melting point was 204 to 207 °C. In turn, `COc1cccc(N2C(c3ccccc3Cl)=NS(=O)(=O)c3cnccc32)c1` came in with a melting point of 227 to 229 °C. Consider `Cc1c(O)c(=O)ccn1CCCCO`, for which the melting point is 126 to 128 °C. Compound `CCN(C(=O)C1(C(=O)O)CC1)c1ccc(Cl)cc1` came in with a melting point of 99 to 101 °C. For `Cc1noc(C2CN=CN(C(c3ccccc3)(c3ccccc3)c3ccccc3)C2)n1` (configuration not stated) the value was 72 to 74 °C; for `O/N=C1\CCCc2c1c1ccccc1n2-c1ccc(OCc2ccccc2)cc1`, 241 to 243 °C. For `Cc1ccccc1C[C@H](C(=O)Nc1nc2ccccc2o1)c1ccc(S(C)(=O)=O)cc1` the value was 99 to 102 °C. In the case of `OCc1ccc(-c2ccc(-c3cn([C@H]4CN5CCC4CC5)nn3)o2)cc1`, the melting point worked out at 209 °C. In turn, `O=C1c2ccc(Cl)cc2CC1Br` (configuration not stated) displayed a melting point of 69 to 76 °C. For `COc1ccc(C(=O)C2CCN(CCCO)CC2)cc1` the value was 102 to 105 °C; for `Cc1nc2c(Br)cnn2c(Cl)c1CCCl`, 128 to 130 °C. For `COc1ccc2c(c1)CC(C)C1C2C(C)CC2(C)C(O)CCC12` (configuration not stated) the value was 130 to 131 °C. `O=C1c2ccccc2C(=O)N1CCCC=NNc1ccc(S(=O)(=O)Nc2ccccc2)cc1` had a melting point of 126 to 129 °C. For `Cc1nnc2n1-c1sc(CCc3ccc(CC(C)C)cc3)cc1C(c1ccccc1Cl)=NC2C` (configuration not stated) the value was 130 to 132 °C. For `Cc1cc(-c2ccc3ncc(N)nc3c2)cc(C)c1O` the value was 256 °C; for `CCCn1cc2c(C3C(=O)Nc4ccc(C#N)cc43)nc(NCCc3ccccn3)nc2n1` (configuration not stated), greater than 300 °C. For `BrCCCCOc1ccc(OCc2ccccc2)cc1` the value was 70 to 72 °C.

The compound `CC(=O)OCC1OC(c2ccc(F)c(Cc3ccc(Br)s3)c2)C(OC(C)=O)C(OC(C)=O)C1OC(C)=O` (configuration not stated) yielded a melting point of 127 to 129 °C.

In turn, `COc1ccc(-c2c(N)oc3c(C(C)(C)C)cc(C(C)(C)C)cc23)cc1OC` had a melting point of 172 to 174 °C.

For `COc1cc(OC)cc(N2CCN(C(=O)N(C)c3nc4ccccc4nc3OC)CC2)c1`, the melting point lay in the range of 143 to 144 °C.

As for `Cc1ccc(C(C)C)c(OCCN(C)Cc2c(C)c(O)c(C)c(C)c2OCCO)c1`, the melting point is 115 to 118 °C. For `COC(=O)CCCc1nc(-c2ccc(F)cc2)c(-c2ccc(S(C)(=O)=O)cc2)o1` the value was 89 to 91 °C; for `COc1ccccc1-c1ccc2cnc(Nc3ccc4c(c3)NC(=O)CC4)nn12`, 310 to 313 °C; for `CCCCOc1c(CNC(=O)OC(C)(C)C)n(CC(C)C)c(=O)c2ccc(O)cc12`, 185 to 186 °C.

As for `OCCN1CCN(CC2CCn3c(nc4ccccc43)S2)CC1` (configuration not stated), the melting point was in the range of 68 to 70 °C. For `CCc1ccc2oc(C(=O)Nc3ccc(-c4ccc(S(=O)(=O)NC(C(=O)O)C(C)C)cc4)cc3)c(C)c2c1OCc1ccccc1` (configuration not stated) the value was 224 to 226 °C; for `COC(=O)c1cc(=O)c2c(C)cc(C)cc2[nH]1`, 227 to 229 °C; for `CON=C1CN(c2cc3c(cc2F)c(=O)c(C(=O)O)cn3C2CC2)CC12CN(C(=O)OC(C)(C)C)C2`, 255 to 256 °C.

With `Cc1c(OC(=O)c2ccccc2)ccc2c1OC(C)(C)CC2=O`, the melting point was 113 °C. For `Clc1nc[nH]c2ncc(I)c1-2` the value was 195 to 196 °C.

Regarding `Cc1ccc(-c2c(-c3ccncc3)nc(-c3c(Cl)cccc3Cl)n2C)cc1`, the melting point lay within 214 to 217 °C. For `NS(=O)(=O)c1nc(Cl)cs1` the value was 137 to 142 °C; for `COC(=O)c1ccccc1OCCN1CCC(c2c[nH]c3ccccc23)CC1`, 124 to 125 °C. For `CC(CSc1cc(C(C)(C)C)c(O)c(C(C)(C)C)c1)C(=O)N1CCCC1` (configuration not stated) the value was 125 to 126 °C; for `COc1ccccc1-c1ccc(C(=O)O)cc1`, 250 to 253 °C. For `COc1cc(Br)c(OC)c2c1C=CCC2` the value was 110 to 111 °C; for `COC(=O)c1cc([N+](=O)[O-])c(C=Cc2ccc(OC)cc2)c([N+](=O)[O-])c1`, 142 to 143 °C; for `Cc1c(C(=O)Nc2ccc(N3CCN(CCO)CC3)c(C#N)c2)cnn1-c1cccc(Cl)c1`, 176 to 177 °C. Regarding `O=C(C=C1CCCCN1)c1ccccc1`, the melting point lay in the range of 59 to 60 °C.

`Nc1nc(C[C@H](NC(=O)[C@H](Cc2ccccc2)NS(=O)(=O)N2CCOCC2)C(=O)O)cs1` returned a melting point of 149 to 151 °C.

Compound `N#Cc1cccc(-c2nnc(-c3cccnc3)s2)c1` displayed a melting point of 258 to 261 °C. For `COC(=O)OCC1OC(Oc2cc(C)cc(O)c2C(=O)CCc2ccc3occc3c2)C(O)C(O)C1O` (configuration not stated) the value was 78 to 82 °C; for `NC(=O)c1c(Cl)c(-c2ccccc2)n2c1CN(S(=O)(=O)c1ccccc1F)CC2`, 239 to 240 °C. As to `CCOC(=O)C(=O)Nc1c([N+](=O)[O-])ccc2c1CCCC2`, the melting point is 121 to 122 °C. For `COc1cc(CSc2ccc(O)cc2)cc(OC)c1O` the value was 128 °C; for `CCOC(=O)C=Nc1c(Cl)cccc1C(=O)O`, 175 °C; for `CN(C)c1ccc(C=Cc2ccc(S(=O)(=O)CCCCCCCCCCCO)cc2)cc1`, 153 to 155 °C. The compound `O=C1N(CCCOCc2ccccc2)c2ccccc2C12COc1cc3c(cc12)OCCO3` (configuration not stated) returned a melting point of 37 to 38 °C. For `CNC(=O)c1cnn(C)c1C(=O)Nc1ccn2nc(-c3ccccc3)nc2c1` the value was greater than 250 °C; for `O=[N+]([O-])c1ccc(SCCc2c[nH]cn2)nc1`, 147 to 148 °C; for `Cc1nnc(-c2ccc3occ(-c4cccc(CO)c4)c3c2)o1`, 115 to 116 °C. For `N#Cc1c(N2CCCCC2)cc(-c2ccc3ccc4cccc5ccc2c3c45)c2c1C(=O)c1ccccc1-2` the value was 180 to 182 °C; for `Nc1nc(N)c(C(=O)NC2=NCCN2)nc1Cl`, 236 °C. For `CC(C)(C)OC(=O)C1CCNC1=S` (configuration not stated) the value was 110 to 111 °C; for `CCOP(=O)(OCC)C(CC(C(=O)Nc1ccccc1)C(=O)c1ccccc1)P(=O)(OCC)OCC` (configuration not stated), 104 to 105 °C; for `COC(=O)CCc1cnoc1-c1ccc(Cl)cc1`, 51 to 52 °C. The compound `N#CC1(c2ccccc2)CCN(C(=O)CC(c2ccccc2)(c2ccccc2)c2ccccc2)CC1` registered a melting point of 188 to 190 °C.

The values above are taken from a melting point compilation (Tetko et al.; mined from patent text by program, amines drawn as free bases though some values may be those of a salt).
